Measurements from PubChem BioAssay AID1963841 (Molecular Pharmacology Branch, DTP, NCI, 2024).
pIC50: −log10 of the molar value.

System: 439559-082-T-J2-PDC spheroid viability
Assay: Anticancer human tumor 439559-082-T-J2-PDC patient-derived colon adenocarcinoma cell line growth inhibition [POLQ]
Settings: spheroids with HUVEC and MSC; for pIC50: curve of first compound; for viability, T/C: stronger effect = lower value
Procedure, shortened: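 Complex spheroid viability model combining PDC tumour cells with endothelial (HUVEC) and MSC stromal cells. Novobiocin, ART-558 or RP6685 were tested singly and in combination with standard and investigational anticancer drugs. Each was titrated in half-log steps from near clinical Cmax, or from 10 microM where Cmax was unknown.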

[1] = second compound 0.0316 µM, first compound 0.0316 µM
[2] = second compound 0.0316 µM, first compound 0.1 µM
[3] = second compound 0.0316 µM, first compound 0.316 µM
[4] = second compound 0.0316 µM, first compound 1 µM
[5] = second compound 0.0316 µM, first compound 3.16 µM
[6] = second compound 0.0316 µM, first compound 10 µM
[7] = second compound 0.1 µM, first compound 0.0316 µM
[8] = second compound 0.1 µM, first compound 0.1 µM
[9] = second compound 0.1 µM, first compound 0.316 µM
[10] = second compound 0.1 µM, first compound 1 µM
[11] = second compound 0.1 µM, first compound 3.16 µM
[12] = second compound 0.1 µM, first compound 10 µM
[13] = second compound 0.316 µM, first compound 0.0316 µM
[14] = second compound 0.316 µM, first compound 0.1 µM
[15] = second compound 0.316 µM, first compound 0.316 µM
[16] = second compound 0.316 µM, first compound 1 µM
[17] = second compound 0.316 µM, first compound 3.16 µM
[18] = second compound 0.316 µM, first compound 10 µM
[19] = second compound 1 µM, first compound 0.0316 µM
[20] = second compound 1 µM, first compound 0.1 µM
[21] = second compound 1 µM, first compound 0.316 µM
[22] = second compound 1 µM, first compound 1 µM
[23] = second compound 1 µM, first compound 3.16 µM
[24] = second compound 1 µM, first compound 10 µM
[25] = second compound 3.16 µM, first compound 0.0316 µM
[26] = second compound 3.16 µM, first compound 0.1 µM
[27] = second compound 3.16 µM, first compound 0.316 µM
[28] = second compound 3.16 µM, first compound 1 µM
[29] = second compound 3.16 µM, first compound 3.16 µM
[30] = second compound 3.16 µM, first compound 10 µM
[31] = second compound 10 µM, first compound 0.0316 µM
[32] = second compound 10 µM, first compound 0.1 µM
[33] = second compound 10 µM, first compound 0.316 µM
[34] = second compound 10 µM, first compound 1 µM
[35] = second compound 10 µM, first compound 3.16 µM
[36] = second compound 10 µM, first compound 10 µM
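Also: spheroids exposed to compounds for seven days before readout.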
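For viability, T/C in this document: 100% = DMSO vehicle control viability.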

CC1COCCN1c1cc(C2(O)CC3CCC(C2)O3)c2cnn(-c3ccn[nH]3)c2n1 (centres undefined) + Nc1ccc(C#CCN(C(=O)Cc2ncc(C(F)(F)F)cc2C(F)(F)F)c2ccc(F)cc2)nn1
pIC50 (second compound 0.0316 µM): < 5.00
pIC50 (second compound 0.1 µM): < 5.00
pIC50 (second compound 0.316 µM): < 5.00
pIC50 (second compound 1 µM): < 5.00
pIC50 (second compound 3.16 µM): < 5.00
pIC50 (second compound 10 µM): < 5.00
viability, T/C [1]: 97.8%
viability, T/C [2]: 88.4%
viability, T/C [3]: 77%
viability, T/C [4]: 62.4%
viability, T/C [5]: 59.4%
viability, T/C [6]: 51.4%
viability, T/C [7]: 102%
viability, T/C [8]: 85.8%
viability, T/C [9]: 79.4%
viability, T/C [10]: 60.3%
viability, T/C [11]: 56.9%
viability, T/C [12]: 54.4%
viability, T/C [13]: 126%
viability, T/C [14]: 73.7%
viability, T/C [15]: 66.8%
viability, T/C [16]: 60.1%
viability, T/C [17]: 59.2%
viability, T/C [18]: 50.2%
viability, T/C [19]: 97.1%
viability, T/C [20]: 100%
viability, T/C [21]: 78.2%
viability, T/C [22]: 66.7%
viability, T/C [23]: 60.6%
viability, T/C [24]: 55%
viability, T/C [25]: 82.5%
viability, T/C [26]: 80.5%
viability, T/C [27]: 82.3%
viability, T/C [28]: 60.6%
viability, T/C [29]: 59.1%
viability, T/C [30]: 58%
viability, T/C [31]: 91.7%
viability, T/C [32]: 80.7%
viability, T/C [33]: 66.9%
viability, T/C [34]: 53.1%
viability, T/C [35]: 55.3%
viability, T/C [36]: 48.6%

O=C(Nc1ccc(O)c(NS(=O)(=O)c2ccc(F)cc2)c1)c1ccc(-c2ccccc2)cc1 + Nc1ccc(C#CCN(C(=O)Cc2ncc(C(F)(F)F)cc2C(F)(F)F)c2ccc(F)cc2)nn1
pIC50 (second compound 0.0316 µM): < 5.00
pIC50 (second compound 0.1 µM): < 5.00
pIC50 (second compound 0.316 µM): < 5.00
pIC50 (second compound 1 µM): < 5.00
pIC50 (second compound 3.16 µM): < 5.00
pIC50 (second compound 10 µM): < 5.00
viability, T/C [1]: 93%
viability, T/C [2]: 97.5%
viability, T/C [3]: 98.8%
viability, T/C [4]: 93.3%
viability, T/C [5]: 96.3%
viability, T/C [6]: 103%
viability, T/C [7]: 99%
viability, T/C [8]: 103%
viability, T/C [9]: 92.9%
viability, T/C [10]: 97%
viability, T/C [11]: 111%
viability, T/C [12]: 106%
viability, T/C [13]: 105%
viability, T/C [14]: 104%
viability, T/C [15]: 94.8%
viability, T/C [16]: 96.9%
viability, T/C [17]: 87.9%
viability, T/C [18]: 92.5%
viability, T/C [19]: 93.5%
viability, T/C [20]: 103%
viability, T/C [21]: 89.7%
viability, T/C [22]: 90.7%
viability, T/C [23]: 99.6%
viability, T/C [24]: 96.8%
viability, T/C [25]: 89.6%
viability, T/C [26]: 107%
viability, T/C [27]: 100%
viability, T/C [28]: 99.6%
viability, T/C [29]: 94.2%
viability, T/C [30]: 91.3%
viability, T/C [31]: 114%
viability, T/C [32]: 101%
viability, T/C [33]: 102%
viability, T/C [34]: 91.5%
viability, T/C [35]: 113%
viability, T/C [36]: 101%
